Tests used:
[1] = test system: declawed cats with chronic distal thoracic limb pain; test: QoL and pain monitoring (CSOMf, FMPI, owner reports) in open-label trial of perineural RTX in declawed cats; assay type: in vivo, cat
Method: Cats suffering from severe bilateral chronic pain (more than 90 days) as a result of severe complications after onychectomy were enrolled in this study (an exploratory, open-label, multicenter clinical trial). Thirteen (13) cases were treated for initial pain and reduced quality of life (QoL). Then, bilateral perineural distal limb injections (ring block technique) were administered under general anesthesia (a combination of diphenhydramine, buprenorphine, dexmedetomidine, ketamine, and isoflurane). Following a published technique (Enomoto et al., 2016) for the nerve block of the manus of the cat, the total dose of RTX was equally distributed adjacent to the 1) superficial branch of the radial nerve, 2) dorsal branch of the ulnar nerve, 3) median nerve and superficial branch of the palmar branch of the ulnar nerve, and 4) deep branch of palmar branch of the ulnar nerve. A total of 2.5 ug (1.25 ug/1 mL per forelimb in Group 1, n=7) and 5 ug (2.5 ug/1 mL per forelimb in Group 2, n=6) of RTX was injected as a one-time treatment. Group 2 included the cat for which detailed results are provided in Example B above. Monitoring of QoL and pain for the following 28 days was accomplished using the Client-Specific Outcome Measures feline (CSOMf), the Feline Musculoskeletal Pain Index (FMPI), two post-injection physical examinations, and videography on days 3, 7, 14, and 28 post injections.

[2] = test system: declawed cat with maladaptive pain; test: Physical exam and behavioral findings in a declawed cat after perineural RTX; assay type: in vivo; conditions: one cat
Method: (§1) Tolerance, safety, and analgesic effects of RTX administration were evaluated in a single declawed cat with maladaptive pain. […] The cat also presented a self-limiting decreased appetite for 12 hours post injection.
A summary of the pre- and post-RTX injection physical exam results relevant to pain related to the declawed digits are presented in Table 4.
Additionally, the cat had shown elimination behavior issues, aggressivity when manipulated, and diminished attention seeking before treatment. Each of these behavioral issues related to the chronic maladaptive pain state reversed following the perineural administration of RTX, even though the cat was believed to have been in pain for years prior to this treatment.

[3] = test system: declawed cat with maladaptive pain; test: Client Specific Outcome Measure (CSOM) in a declawed cat after perineural RTX nerve blocks; assay type: in vivo; design: key to CSOM Total score / CSOM Q1 Extending distal limb; “kneading”; stretching / CSOM Q2 Running / CSOM Q3 Jumping down from bed and window: 1 = no problem; 2 = mild difficulty; 3 = moderate; 4 = severe difficulty; 5 = impossible; conditions: one cat; for CSOM Q1 Extending distal limb; “kneading”; stretching / CSOM Q2 Running / CSOM Q3 Jumping down from bed and window / CSOM Total score: 2.5 μg/forelimb perineural
Method: Each dose of 5 μg/cat or 2.5 μg/forelimb will be formulated in 1 cc insulin syringes by diluting 0.1 mL: (2.5 μg) of RTX in 0.9 mL sterile saline for injection immediately before use. For treatment, a total of 1.0 mL (2.5 μg) will be injected as nerve blocks, distributed equally (0.25 ml per injection site) over 4 injection sites for each forelimb.
Four point nerve blocks are performed by injection of 0.25 mL RTX each into the 1) superficial branches of the radial nerve, 2) dorsal branch of the ulnar nerve, 3) median nerve and superficial branch of the palmar branch of the ulnar nerve, and 4) deep branch of the palmar branch of the ulnar nerve. The nerve blocks for each forelimb are performed following a published technique for locoregional block of the manus in cats (Enomoto et al. (2016) J. Feline Med. Surg. 18:838-845). To block the superficial branches of the radial nerve (RSbr nn), the limb is positioned with the dorsal aspect facing upwards and the carpus in 180° of extension. A 25 G×⅝-inch needle is inserted subcutaneously (SC) from a point at the center of the limb at the level of the antebrachiocarpal joint. The needle is advanced approximately 10 mm SC at a 10-20° angle to the long axis of the limb with the bevel facing up. Once the tip of the needle is 3-5 mm from the confluence point of the accessory cephalic and cephalic veins, the injection is made (0.25 mL). To block the dorsal branch of the ulnar nerve (UDbr n), the limb is positioned with the lateral aspect facing upwards. A point is located lateral to and at the same level as the accessory carpal bone (ACb), positioned between the ACb and the styloid process of the ulna (SpU). A 25 G×⅝-inch needle is inserted SC distal to proximal, so the tip lies at the midpoint of the groove formed between ACb and the SpU, and then the injection is made (0.25 mL). To block the median nerve (M n) and superficial branch of the palmar branch of the ulnar nerve (UPbrS n), the limb is positioned with the palmar aspect facing upwards. A 25 G×⅝-inch needle is inserted SC at the distal border of the carpal pad and approximately 5 mm lateral to it, perpendicular to the long axis of the metacarpus, with the bevel facing up. The needle is inserted SC until the point is located two-thirds of the distance from the lateral aspect of the limb to the medial aspect. Two-thirds of the injectate volume is deposited at this point and the remaining volume is injected while the needle is withdrawn (0.25 mL). Gentle massage is applied to the injected volume under the skin for 5 seconds. To block the deep branch of the palmar branch of the ulnar nerve (UPbrDp n), the limb is positioned with the palmar aspect facing upwards. A 25 G×⅝-inch needle is inserted almost perpendicular to the ACb in a mediolateral direction such that the needle contacts the medial palmar aspect of the midpoint of the ACb with the bevel facing up. The needle is then redirected dorsally and advanced on the medial side of the ACb 2-3 mm until it penetrates the flexor retinaculum, and then the injection is made (0.25 mL).
The effectiveness of the injection with RTX is assessed at days 3, 7, and 14 using owner videography for qualitative assessment (jumping, manipulation of the limb), and cats will also be evaluated using the Feline Musculoskeletal Pain Index (FMPI) and the Client Specific Outcome Measure (CSOM).
For CSOM, owners are asked to score three attributes (Q1) Extending distal limb, “kneading”; stretching, (Q2) Running; and (Q3) Jumping down from bed and window using a scale of 1-5 where 1=no problem, 2=mild difficulty, 3=moderate, 4=severe difficulty, and 5=impossible.
as §1

Compound: C=C(C)[C@]12C[C@@H](C)[C@@]34O[C@](Cc5ccccc5)(O[C@@H]1[C@@H]3C=C(COC(=O)Cc1ccc(O)c(OC)c1)C[C@]1(O)C(=O)C(C)=C[C@@H]41)O2 [RTX, resiniferatoxin]
- CSOMf and FMPI scores ([1]; 28-day monitoring period, 13 cats): clear improvement
- Owner-reported natural and pathological adopted behaviors (QoL) ([1]; both groups): significant changes
- Duration of improvements reported informally ([1]; in some cases): over 6 months
- Treatment of distal thoracic limb pain ([1]; perineural injections, cats): can effectively treat
- Behavioral issues (elimination behavior issues, aggressivity when manipulated, diminished attention seeking) ([2]; following perineural administration): reversed
- Overall conclusion from CSOM and FMPI scores ([2]; 2.5 μg/forelimb perineural): safe and effective
- Persistence of effects ([2]; 2.5 μg/forelimb perineural): at least 14 days
- CSOM Q1 Extending distal limb; “kneading”; stretching ([3]; Day 0 (baseline)): 3
- CSOM Q2 Running ([3]; Day 0 (baseline)): 3
- CSOM Q3 Jumping down from bed and window ([3]; Day 0 (baseline)): 2
- CSOM Total score ([3]; Day 0 (baseline)): 8
- CSOM Q1 Extending distal limb; “kneading”; stretching ([3]; Day 3): 2
- CSOM Q2 Running ([3]; Day 3): 3
- CSOM Q3 Jumping down from bed and window ([3]; Day 3): 2
- CSOM Total score ([3]; Day 3): 7
- CSOM Q1 Extending distal limb; “kneading”; stretching ([3]; Day 7): 1
- CSOM Q2 Running ([3]; Day 7): 2
- CSOM Q3 Jumping down from bed and window ([3]; Day 7): 2
- CSOM Total score ([3]; Day 7): 5
- CSOM Q1 Extending distal limb; “kneading”; stretching ([3]; Day 14): 2
- CSOM Q2 Running ([3]; Day 14): 2
- CSOM Q3 Jumping down from bed and window ([3]; Day 14): 2
- CSOM Total score ([3]; Day 14): 6
- CSOM Q1 Extending distal limb; “kneading”; stretching ([3]; Screening (baseline)): 3
- CSOM Q2 Running ([3]; Screening (baseline)): 3
- CSOM Q3 Jumping down from bed and window ([3]; Screening (baseline)): 2
- CSOM Total score ([3]; Screening (baseline)): 8
- CSOM: extending distal limb, kneading, stretching and running ([3]; after injection): showed improvement

Source: patent US12144886B2, “Perineural administration of resiniferatoxin for treatment of maladaptive pain” (Sorrento Therapeutics, Inc., priority 2018, dated 2024)
